Measured values: ChEMBL document CHEMBL1201862, “PubChem BioAssay data set” (2004)
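Results reflect a 48-hour exposure of cells in 96-well plates to compound at five concentrations. Abbreviation: GI50, concentration required for 50% inhibition of growth.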 Calls of active or inactive are those of the source. Cut-off read from the data, not from the text of the source: active = GI50 up to about 1.1 µM and inactive = higher.

How the values were obtained:
Experiment in all cases: NCI anticancer screen, dose series, 48 h
SK-MEL-28 = system: SK-MEL-28
SNB-19 = system: SNB-19
RPMI-8226 = system: RPMI-8226
NCI-H226 = system: NCI-H226
K562 = system: K562
CCRF-CEM = system: CCRF-CEM
SN12C = system: SN12C
EKVX = system: EKVX
HOP-62 = system: HOP-62
DMS-114 = system: DMS-114
NCI-H522 = system: NCI-H522
CAKI-1 = system: CAKI-1
HT-29 = system: HT-29
RXF 393 = system: RXF 393
A498 = system: A498
MOLT-4 = system: MOLT-4
SF-539 = system: SF-539
M19-MEL = system: M19-MEL
KM12 = system: KM12
UACC-62 = system: UACC-62
OVCAR-5 = system: OVCAR-5
NCI-H23 = system: NCI-H23
IGROV-1 = system: IGROV-1
HOP-92 = system: HOP-92
COLO 205 = system: COLO 205
LOX IMVI = system: LOX IMVI
SK-OV-3 = system: SK-OV-3
KM-20L2 = system: KM-20L2
OVCAR-8 = system: OVCAR-8
HOP-18 = system: HOP-18
Malme-3M = system: Malme-3M
SNB-78 = system: SNB-78
NCI/ADR-RES = system: NCI/ADR-RES
DMS-273 = system: DMS-273
HCT-116 = system: HCT-116
DLD-1 = system: DLD-1
A549 = system: A549
SW-620 = system: SW-620
XF498 = system: XF498
SNB-75 = system: SNB-75
SF-268 = system: SF-268
HCC 2998 = system: HCC 2998
HL-60 = system: HL-60
U-251 = system: U-251
HCT-15 = system: HCT-15
UO-31 = system: UO-31
SK-MEL-2 = system: SK-MEL-2

## C=C1C(O)C2(O)OCC34C(CC5C(C)=CC(=O)C(O)C5(C)C23)OC(=O)C(OC(=O)C/C=C/CCCCCCCC)C14 (configuration not stated)
SK-MEL-28
  GI50: 20 nM (active)
SNB-19
  GI50: 21.2 nM (active)
RPMI-8226
  GI50: 20 nM (active)
NCI-H226
  GI50: 20 nM (active)
K562
  GI50: 20 nM (active)
CCRF-CEM
  GI50: 20 nM (active)
SN12C
  GI50: 27.5 nM (active)
EKVX
  GI50: 20 nM (active)
HOP-62
  GI50: 23.3 nM (active)
DMS-114
  GI50: 20 nM (active)
NCI-H522
  GI50: 20 nM (active)
CAKI-1
  GI50: 44.9 nM (active)
HT-29
  GI50: 22.6 nM (active)
RXF 393
  GI50: 22.3 nM (active)
A498
  GI50: 25.4 nM (active)
MOLT-4
  GI50: 20 nM (active)
SF-539
  GI50: 20.8 nM (active)
M19-MEL
  GI50: 20 nM (active)
KM12
  GI50: 29.4 nM (active)
UACC-62
  GI50: 21.4 nM (active)
OVCAR-5
  GI50: 112 nM (active)
NCI-H23
  GI50: 20 nM (active)
IGROV-1
  GI50: 20 nM (active)
HOP-92
  GI50: 20 nM (active)
COLO 205
  GI50: 24.1 nM (active)
LOX IMVI
  GI50: 23.7 nM (active)
SK-OV-3
  GI50: 56 nM (active)
KM-20L2
  GI50: 20.8 nM (active)
OVCAR-8
  GI50: 20 nM (active)
HOP-18
  GI50: 77.6 nM (active)
Malme-3M
  GI50: 20 nM (active)
SNB-78
  GI50: 21.9 nM (active)
NCI/ADR-RES
  GI50: 162 nM (active)
DMS-273
  GI50: 20 nM (active)
HCT-116
  GI50: 20 nM (active)
DLD-1
  GI50: 20 nM (active)
A549
  GI50: 24.9 nM (active)
SW-620
  GI50: 21.7 nM (active)
XF498
  GI50: 22.1 nM (active)
SNB-75
  GI50: 22.8 nM (active)
SF-268
  GI50: 20.9 nM (active)
HCC 2998
  GI50: 20 nM (active)
HL-60
  GI50: 20 nM (active)
U-251
  GI50: 20 nM (active)
HCT-15
  GI50: 24.1 nM
UO-31
  GI50: 45.2 nM (active)
SK-MEL-2
  GI50: 24.1 nM (active)
